US3980794A, “Method for promoting growth of poultry with 3-(5-nitro-2-imidazolyl)pyrazoles” (Eli Lilly and Company, priority 1975, dated 1976)
Converted amounts (≈) assume the structure as drawn. Like-named read-outs stand apart in the source and are kept apart here.

Legend:
Type in all cases: cell-based
[1] = system: Bacteroides fragilis sp. fragilis 1936B; assay: Susceptibility of anaerobic bacteria, agar dilution; conditions: 24 h, read-out: 24 Hr. Minimum Inhibitory Concentration
Actinomyces bovis 13684 = assay: as above; conditions: read-out: 24 Hr. Minimum Inhibitory Concentration
[2] = system: Fusobacterium necrophorum 13859; assay: as above; conditions: read-out: 24 Hr. Minimum Inhibitory Concentration
[3] = system: Bacteroides fragilis sp. fragilis 1877; assay: as above; conditions: 24 h, read-out: 24 Hr. Minimum Inhibitory Concentration
[4] = system: Bacteroides fragilis sp. vulgatus 1211; assay: as above; conditions: 24 h, read-out: 24 Hr. Minimum Inhibitory Concentration
[5] = system: Peptostreptococcus intermedius 1264; assay: as above; conditions: 24 h; Peptostreptococcus intermedius 1264; read-out: 24 Hr. Minimum Inhibitory Concentration
[6] = system: Clostridium innocuum 1373; assay: as above; conditions: read-out: 24 Hr. Minimum Inhibitory Concentration
[7] = system: Veillonella alcalescens 1; assay: as above; conditions: read-out: 24 Hr. Minimum Inhibitory Concentration
[8] = system: Fusobacterium symbiosum 1470; assay: as above; conditions: read-out: 24 Hr. Minimum Inhibitory Concentration
[9] = system: Eubacterium aerofaciens 1235; assay: as above; conditions: read-out: 24 Hr. Minimum Inhibitory Concentration
Clostridium ramosum 1313 = assay: as above; conditions: read-out: 24 Hr. Minimum Inhibitory Concentration
[10] = system: Clostridium perfringens 81; assay: microbe, parasite or virus in culture; conditions: Clostridium perfringens, 81, 24 h, read-out: 24 Hr. Minimum Inhibitory Concentration
[11] = system: Propionibacterium acnes 79; assay: Susceptibility of anaerobic bacteria, agar dilution; conditions: read-out: 24 Hr. Minimum Inhibitory Concentration
[12] = system: Clostridium septicum 1128; assay: as above; conditions: 24 h, read-out: 24 Hr. Minimum Inhibitory Concentration
Method: (§1) The susceptibility of anaerobic bacteria, both gram positive and gram negative, to a representative number of the novel compounds of this application was determined using the agar dilution method. The bacteria used were isolated from patients hospitalized at the Indiana University Medical Center. The isolates were identified in the anaerobe laboratory of the Medical Center by the criteria established by Dowell et al., Laboratory Methods in Anaerobic Bacteriology. Public Health Serv. Publ. No. 1803 (1968) [Center for Disease Control, Atlanta, Ga.]; and by Smith et al., The Pathogenic Anaerobic Bacteria, pages 96-136 (1968) [Charles C. Thomas, Publisher, Springfield, Ill.]. All the organisms were maintained in chopped meat glucose medium (Scott Labs) at room temperature.
(§2) The method used for the agar dilution tests was based on the studies of Sutter et al., Antimicrob. Ag. Chemother. 3, 188-193 (1973). The strains of anaerobic bacteria were grown in 16 × 120 mm. tubes for 16 to 18 hours in Thioglycolate medium without indicator--135C (Becton, Dickinson and Co.), to which was added 5 mcg. of hemin per milliliter prior to autoclaving, plus 1 mg. of sodium bicarbonate and 0.1 mcg. of filter-sterilized menadione per milliliter after autoclaving. The growth tubes for the bacteria Veillonella alcalescens were additionally supplemented with 5 mg. of sodium lactate per milliliter. The strains were adjusted to the turbidity of the No. 1 McFarland standard in Thioglycolate medium without indicator--135C containing an additional 0.13 percent Bacto-agar (Difco). Each strain was then applied to the surface of the petri plate (100 mm. × 15 mm.) by means of a replicator.
(§3) For the agar dilution studies, two-fold dilutions of the test compounds were prepared in deionized water to which was then added laked sheep blood and filter-sterilized menadione so the concentrations after the agar dilution were 5 percent and 10 mcg./ml. respectively. An equal volume of double strength Brucella agar (Becton, Dickinson and Co.) was mixed with each dilution in a water bath held at 50°C. and then poured onto the petri plates.
(§4) All of the procedures were done inside a plastic glove box, except for the incubation of the growth tubes and the pouring of the plates. After the plates hardened, they were put inside the glove box for a minimum of two hours before they were inoculated. Generally, the glove box procedures of Aranki et al., Applied Microbiology 17, 568-576 (1969), were followed, but the following modifications were used. Dry materials were introduced into the glove box by evacuating the lock to 28 inches of mercury and filling once with nitrogen gas, followed by evacuating in the same manner and filling with an 80 percent nitrogen plus 10 percent CO2 plus 10 percent hydrogen gas mixture. Liquid media and agar plates were introduced into the glove box by evacuating the lock to 10 inches of mercury and filling with gas four times. The nitrogen gas was used to fill the lock for the first two cycles of evacuation, with the gas mixture described above used for the final two fillings.
(§5) All the plates were incubated at 37°C. in Gas Pak jars (Becton, Dickinson and Co.) containing palladium-coated alumina catalysts (reactivated after each use). The results of the agar dilution tests were read after about 24 hours of incubation. The minimum inhibitory concentration (MIC) was recorded as the lowest concentration of test compound at which there was no growth.
(§6) The results of these in vitro tests are recorded in Charts 11 and 12 which follow. The test compounds are identified in the same manner as in the previous experiments. The antibiotics cephalothin and erythromycin were also run simultaneously with the novel compounds of this application, for comparison purposes, and the results are included in Charts 11 and 12 below.

[13] = system: Clostridium septicum bovine; assay: as above; conditions: 24 h, read-out: 24 Hr. Minimum Inhibitory Concentration
Method: as §1, §2, §3, §4, §5, §6

[14] = system: Peptococcus anaerobius 1428; assay: as above; conditions: 24 h, read-out: 24 Hr. Minimum Inhibitory Concentration
[15] = system: Propionibacterium acnes 44; assay: as above; conditions: Cutibacterium acnes, 24 h; Propionibacterium acnes 44; read-out: 24 Hr. Minimum Inhibitory Concentration
[16] = system: Bacteroides fragilis sp. thetaiotaomicron 1438; assay: as above; conditions: 24 h, read-out: 24 Hr. Minimum Inhibitory Concentration
[17] = system: Bacteroides fragilis sp. vulgatus 1563; assay: as above; conditions: 24 h, read-out: 24 Hr. Minimum Inhibitory Concentration
[18] = Fusobacterium necrophorum, 13859, 24 h
[19] = [Clostridium] innocuum, 1373, 24 h
[20] = Collinsella aerofaciens, 1235, 24 h
[21] = Thomasclavelia ramosa, 1313, 24 h
[22] = Bacteroides fragilis sp. vulgatus 1563

Compound	MIC ([1]; Bacteroides fragilis) [µg/mL]	MIC (Actinomyces bovis 13684; Actinomyces bovis, 13684, 24 h) [µg/mL]	MIC [2, 18] [µg/mL]	MIC ([3]; Bacteroides fragilis) [µg/mL]	MIC ([4]; Bacteroides fragilis) [µg/mL]	MIC [5] [µg/mL]	MIC [6, 19] [µg/mL]	MIC ([7]; Veillonella parvula, 1, 24 h) [µg/mL]	MIC ([8]; Fusobacterium, 1470, 24 h) [µg/mL]	MIC [9, 20] [µg/mL]	MIC (Clostridium ramosum 1313; [21]) [µg/mL]	MIC [10] [µg/mL]	MIC ([11]; Cutibacterium acnes, 79, 24 h) [µg/mL]	MIC [12] [µg/mL]	MIC [13] [µg/mL]	MIC [14] [µg/mL]	MIC [15] [µg/mL]	MIC ([16]; Bacteroides fragilis) [µg/mL]	MIC [17, 22] [µg/mL]	other results
CCOC=Nc1c(C#N)c(-c2ncc([N+](=O)[O-])n2C)nn1C [Compound 4, Ethyl N-[4-cyano-1-methyl-3-(1-methyl-5-nitro-2-imidazolyl)-pyrazol-5-yl]formimidate]	< 0.125	< 0.125	< 0.125	< 0.125	< 0.125	16 (≈ 52.8 µM)	< 0.125	< 0.125	< 0.125	< 0.125	< 0.125	< 0.125	< 0.125	< 0.125	< 0.125	< 0.125	> 32	< 0.125	–	MIC ([17]; Bacteroides fragilis): < 0.125 µg/mL
CN(C)C=Nc1c(C#N)c(-c2ncc([N+](=O)[O-])n2C)nn1C [Compound 9, 5-[[(Dimethylamino)methylene]amino]-1-methyl-3-(1-methyl-5-nitro-2-imidazolyl)pyrazole-4-carbonitrile]	< 0.125	< 0.125	< 0.125	< 0.125	< 0.125	> 32	< 0.125	< 0.125	< 0.125	< 0.125	< 0.125	< 0.125	< 0.125	< 0.125	< 0.125	< 0.125	> 32	< 0.125	0.25 (≈ 0.827 µM)	–
Cn1nc(-c2ncc([N+](=O)[O-])n2C)c(C(=O)O)c1N [Compound 10A, 5-amino-1-methyl-3-(1-methyl-5-nitro-2-imidazolyl)pyrazole-4-carboxylic acid]	–	–	–	–	–	16 (≈ 60.1 µM)	–	–	–	–	–	0.5 (≈ 1.88 µM)	–	1 (≈ 3.76 µM)	1 (≈ 3.76 µM)	–	> 32	–	0.25 (≈ 0.939 µM)	MIC ([1]; Bacteroides fragilis sp. fragilis 1936B): 8 µg/mL (≈ 30.1 µM); MIC (Actinomyces bovis 13684; 24 h, Actinomyces bovis 13684): 4 µg/mL (≈ 15 µM); MIC ([2]; 24 h, Fusobacterium necrophorum 13859): < 0.125 µg/mL; MIC ([3]; Bacteroides fragilis sp. fragilis 1877): 0.5 µg/mL (≈ 1.88 µM); MIC ([4]; Bacteroides fragilis sp. vulgatus 1211): 0.25 µg/mL (≈ 0.939 µM); MIC ([6]; 24 h, Clostridium innocuum 1373): 0.5 µg/mL (≈ 1.88 µM); MIC ([7]; Veillonella parvula, 24 h, Veillonella alcalescens 1): < 0.125 µg/mL; MIC ([8]; 24 h, Fusobacterium symbiosum 1470): < 0.125 µg/mL; MIC ([9]; Collinsella aerofaciens, 24 h, Eubacterium aerofaciens 1235): < 0.5 µg/mL; MIC (Clostridium ramosum 1313; Thomasclavelia ramosa, 24 h, Clostridium ramosum 1313): 4 µg/mL (≈ 15 µM); MIC ([11]; Cutibacterium acnes, 24 h, Propionibacterium acnes 79): 0.5 µg/mL (≈ 1.88 µM); MIC ([14]; Peptococcus anaerobius 1428): 8 µg/mL (≈ 30.1 µM); MIC ([16]; Bacteroides fragilis sp. thetaiotaomicron 1438): 0.25 µg/mL (≈ 0.939 µM)
